Data published in PubChem BioAssay AID1963864 (Molecular Pharmacology Branch, DTP, NCI, 2024).
pIC50: −log10 of the molar value.

System: KRAS PDC multicell spheroid viability
Assay: Anticancer human tumor 521955-158-R6-J3-PDC patient-derived pancreatic carcinoma cell line growth inhibition [KRAS2]
Conditions: for viability, T/C: stronger effect = lower value
Method in brief: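 Combination screen of spheroid viability in tumor-cell co-cultures with endothelial (HUVEC) and mesenchymal stem cell stroma. Each agent was tested in half-log dilutions, topping at clinical Cmax or at 10 microM without a known Cmax.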

[1] = curve of first compound, second compound 0.0316 µM
[2] = curve of first compound, second compound 0.1 µM
[3] = curve of first compound, second compound 0.316 µM
[4] = curve of first compound, second compound 1 µM
[5] = curve of first compound, second compound 3.16 µM
[6] = second compound 0.0316 µM, first compound 0.00316 µM
[7] = second compound 0.0316 µM, first compound 0.01 µM
[8] = second compound 0.0316 µM, first compound 0.0316 µM
[9] = second compound 0.0316 µM, first compound 0.1 µM
[10] = second compound 0.1 µM, first compound 0.000316 µM
[11] = second compound 0.1 µM, first compound 0.001 µM
[12] = second compound 0.1 µM, first compound 0.00316 µM
[13] = second compound 0.1 µM, first compound 0.01 µM
[14] = second compound 0.1 µM, first compound 0.0316 µM
[15] = second compound 0.1 µM, first compound 0.1 µM
[16] = second compound 0.316 µM, first compound 0.000316 µM
[17] = second compound 0.316 µM, first compound 0.001 µM
[18] = second compound 0.316 µM, first compound 0.00316 µM
[19] = second compound 0.316 µM, first compound 0.01 µM
[20] = second compound 0.316 µM, first compound 0.0316 µM
[21] = second compound 0.316 µM, first compound 0.1 µM
[22] = second compound 1 µM, first compound 0.000316 µM
[23] = second compound 1 µM, first compound 0.001 µM
[24] = second compound 1 µM, first compound 0.00316 µM
[25] = second compound 1 µM, first compound 0.01 µM
[26] = second compound 1 µM, first compound 0.0316 µM
[27] = second compound 1 µM, first compound 0.1 µM
[28] = second compound 3.16 µM, first compound 0.000316 µM
[29] = second compound 3.16 µM, first compound 0.001 µM
[30] = second compound 3.16 µM, first compound 0.00316 µM
[31] = second compound 3.16 µM, first compound 0.01 µM
[32] = second compound 3.16 µM, first compound 0.0316 µM
[33] = second compound 3.16 µM, first compound 0.1 µM
[34] = second compound 0.1 µM, first compound 0.316 µM
[35] = second compound 0.1 µM, first compound 1 µM
[36] = second compound 0.316 µM, first compound 0.316 µM
[37] = second compound 0.316 µM, first compound 1 µM
[38] = second compound 1 µM, first compound 0.316 µM
[39] = second compound 1 µM, first compound 1 µM
[40] = second compound 3.16 µM, first compound 0.316 µM
[41] = second compound 3.16 µM, first compound 1 µM
[42] = curve of first compound, second compound 10 µM
[43] = second compound 0.1 µM, first compound 3.16 µM
[44] = second compound 0.1 µM, first compound 10 µM
[45] = second compound 0.316 µM, first compound 3.16 µM
[46] = second compound 0.316 µM, first compound 10 µM
[47] = second compound 1 µM, first compound 3.16 µM
[48] = second compound 1 µM, first compound 10 µM
[49] = second compound 3.16 µM, first compound 3.16 µM
[50] = second compound 3.16 µM, first compound 10 µM
[51] = second compound 10 µM, first compound 0.0316 µM
[52] = second compound 10 µM, first compound 0.1 µM
[53] = second compound 10 µM, first compound 0.316 µM
[54] = second compound 10 µM, first compound 1 µM
[55] = second compound 10 µM, first compound 3.16 µM
[56] = second compound 10 µM, first compound 10 µM
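Also: drug exposure lasted seven days.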
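For viability, T/C in this document: 100% = DMSO vehicle wells and lower means fewer viable cells.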

## Cn1ncnc1[C@H]1c2n[nH]c(=O)c3cc(F)cc(c23)N[C@@H]1c1ccc(F)cc1 + C=CC(=O)N1CCN(c2nc(OCC3CCCN3C)nc3c2CCN(c2cccc4cccc(C)c24)C3)CC1CC#N
[1]
  pIC50: < 7.00
[2]
  pIC50: < 7.00
[3]
  pIC50: < 7.00
[4]
  pIC50: < 7.00
[5]
  pIC50: > 9.50
Second compound 0.0316 µM, first compound 0.000316 µM
  viability, T/C: 100%
Second compound 0.0316 µM, first compound 0.001 µM
  viability, T/C: 100%
[6]
  viability, T/C: 98.1%
[7]
  viability, T/C: 105%
[8]
  viability, T/C: 97%
[9]
  viability, T/C: 90.8%
[10]
  viability, T/C: 94.2%
[11]
  viability, T/C: 94.5%
[12]
  viability, T/C: 104%
[13]
  viability, T/C: 91.9%
[14]
  viability, T/C: 98.9%
[15]
  viability, T/C: 89.4%
[16]
  viability, T/C: 94.1%
[17]
  viability, T/C: 89.9%
[18]
  viability, T/C: 95.1%
[19]
  viability, T/C: 88.4%
[20]
  viability, T/C: 92.2%
[21]
  viability, T/C: 91%
[22]
  viability, T/C: 83.8%
[23]
  viability, T/C: 78.6%
[24]
  viability, T/C: 88.3%
[25]
  viability, T/C: 91.7%
[26]
  viability, T/C: 78.6%
[27]
  viability, T/C: 85.4%
[28]
  viability, T/C: 50.4%
[29]
  viability, T/C: 43.3%
[30]
  viability, T/C: 53.2%
[31]
  viability, T/C: 54.5%
[32]
  viability, T/C: 52.6%
[33]
  viability, T/C: 53.6%

## COc1cc(Nc2ncc3c(n2)-c2ccc(Cl)cc2C(c2c(F)cccc2OC)=NC3)ccc1C(=O)O
Compound 0.0316 µM
  viability, T/C: 93.8% [middle of 5 runs]
Compound 0.1 µM
  viability, T/C: 90.8% [middle of 5 runs]
Compound 0.316 µM
  viability, T/C: 96.9% [middle of 5 runs]
Compound 1 µM
  viability, T/C: 90.7% [middle of 5 runs]
Curve of compound
  pIC50: < 5.00

## CCN1CCN(Cc2ccc(Nc3ncc(F)c(-c4cc(F)c5nc(C)n(C(C)C)c5c4)n3)nc2)CC1 + C=CC(=O)N1CCN(c2nc(OCC3CCCN3C)nc3c2CCN(c2cccc4cccc(C)c24)C3)CC1CC#N
[1]
  pIC50: < 6.00
[2]
  pIC50: < 6.00
[3]
  pIC50: < 6.00
[4]
  pIC50: < 6.00
[5]
  pIC50: > 8.50
[6]
  viability, T/C: 94.4%
[7]
  viability, T/C: 81.9%
[8]
  viability, T/C: 76%
[9]
  viability, T/C: 76.1%
Second compound 0.0316 µM, first compound 0.316 µM
  viability, T/C: 82.8%
Second compound 0.0316 µM, first compound 1 µM
  viability, T/C: 95.1%
[12]
  viability, T/C: 88.3%
[13]
  viability, T/C: 93.6%
[14]
  viability, T/C: 81.4%
[15]
  viability, T/C: 85.7%
[34]
  viability, T/C: 82.9%
[35]
  viability, T/C: 98.8%
[18]
  viability, T/C: 86.1%
[19]
  viability, T/C: 86.4%
[20]
  viability, T/C: 76.5%
[21]
  viability, T/C: 77.2%
[36]
  viability, T/C: 87.8%
[37]
  viability, T/C: 91.9%
[24]
  viability, T/C: 72%
[25]
  viability, T/C: 84.5%
[26]
  viability, T/C: 71.3%
[27]
  viability, T/C: 65.2%
[38]
  viability, T/C: 79.9%
[39]
  viability, T/C: 103%
[30]
  viability, T/C: 24.9%
[31]
  viability, T/C: 26.4%
[32]
  viability, T/C: 25.9%
[33]
  viability, T/C: 17.1%
[40]
  viability, T/C: 15.3%
[41]
  viability, T/C: 4.09%

## COc1cc2nccc(Oc3ccc(NC(=O)C4(C(=O)Nc5ccc(F)cc5)CC4)cc3)c2cc1OC + CNCc1ccccc1-c1csc(C(C)Nc2nc(C)nc3cc(OC)c(OC)cc23)c1
[2]
  pIC50: < 5.00
[3]
  pIC50: < 5.00
[4]
  pIC50: 5.67
[5]
  pIC50: > 7.50
[42]
  pIC50: > 7.50
[14]
  viability, T/C: 91.1%
[15]
  viability, T/C: 102%
[34]
  viability, T/C: 101%
[35]
  viability, T/C: 108%
[43]
  viability, T/C: 125%
[44]
  viability, T/C: 133%
[20]
  viability, T/C: 94.3%
[21]
  viability, T/C: 92.9%
[36]
  viability, T/C: 90.2%
[37]
  viability, T/C: 87.7%
[45]
  viability, T/C: 119%
[46]
  viability, T/C: 109%
[26]
  viability, T/C: 80.1%
[27]
  viability, T/C: 75.1%
[38]
  viability, T/C: 79.3%
[39]
  viability, T/C: 83.9%
[47]
  viability, T/C: 32.2%
[48]
  viability, T/C: 38.4%
[32]
  viability, T/C: 0.94%
[33]
  viability, T/C: 0.35%
[40]
  viability, T/C: 0.42%
[41]
  viability, T/C: 0.24%
[49]
  viability, T/C: 0.24%
[50]
  viability, T/C: 0.24%
[51]
  viability, T/C: 13.4%
[52]
  viability, T/C: 0.23%
[53]
  viability, T/C: 0.2%
[54]
  viability, T/C: 0.21%
[55]
  viability, T/C: 0.2%
[56]
  viability, T/C: 0.28%

## CC1OCC2(CCN(c3cnc(Sc4ccnc(N)c4Cl)c(N)n3)CC2)C1N (stereo not given) + C=CC(=O)N1CCN(c2nc(=O)n(-c3c(C)ccnc3C(C)C)c3nc(-c4c(O)cccc4F)c(F)cc23)C(C)C1
[2]
  pIC50: < 5.00
[3]
  pIC50: < 5.00
[4]
  pIC50: < 5.00
[5]
  pIC50: < 5.00
[42]
  pIC50: < 5.00
[14]
  viability, T/C: 99.6%
[15]
  viability, T/C: 93.6%
[34]
  viability, T/C: 99.6%
[35]
  viability, T/C: 92%
[43]
  viability, T/C: 106%
[44]
  viability, T/C: 128%
[20]
  viability, T/C: 97.3%
[21]
  viability, T/C: 94.4%
[36]
  viability, T/C: 91.9%
[37]
  viability, T/C: 96%
[45]
  viability, T/C: 113%
[46]
  viability, T/C: 116%
[26]
  viability, T/C: 98.7%
[27]
  viability, T/C: 103%
[38]
  viability, T/C: 102%
[39]
  viability, T/C: 90.4%
[47]
  viability, T/C: 124%
[48]
  viability, T/C: 120%
[32]
  viability, T/C: 97.7%
[33]
  viability, T/C: 95.9%
[40]
  viability, T/C: 91.8%
[41]
  viability, T/C: 81.3%
[49]
  viability, T/C: 106%
[50]
  viability, T/C: 108%
[51]
  viability, T/C: 75%
[52]
  viability, T/C: 75%
[53]
  viability, T/C: 62.5%
[54]
  viability, T/C: 54.8%
[55]
  viability, T/C: 70.4%
[56]
  viability, T/C: 79%

## CC(=O)Nc1cccc(-n2c(=O)n(C3CC3)c(=O)c3c(Nc4ccc(I)cc4F)n(C)c(=O)c(C)c32)c1
Compound 0.0001 µM
  viability, T/C: 95.7% [middle of 5 runs]
Compound 0.000316 µM
  viability, T/C: 99.3% [middle of 5 runs]
Compound 0.00316 µM
  viability, T/C: 85.6% [middle of 5 runs]
Compound 0.01 µM
  viability, T/C: 72.2% [middle of 5 runs]
Compound 0.0316 µM
  viability, T/C: 44% [middle of 5 runs]

## CN(C)C/C=C/C(=O)Nc1cc2c(Nc3ccc(F)c(Cl)c3)ncnc2cc1O[C@H]1CCOC1 + CNCc1ccccc1-c1csc(C(C)Nc2nc(C)nc3cc(OC)c(OC)cc23)c1
[2]
  pIC50: < 7.00
[3]
  pIC50: < 7.00
[4]
  pIC50: < 7.00
[5]
  pIC50: 8.70
[42]
  pIC50: > 9.50
[10]
  viability, T/C: 82.2%
[11]
  viability, T/C: 77.5%
[12]
  viability, T/C: 79.8%
[13]
  viability, T/C: 81.3%
[14]
  viability, T/C: 55%
[15]
  viability, T/C: 53.6%
[16]
  viability, T/C: 82.9%
[17]
  viability, T/C: 77.8%
[18]
  viability, T/C: 64.8%
[19]
  viability, T/C: 71.9%
[20]
  viability, T/C: 58.3%
[21]
  viability, T/C: 56.7%
[22]
  viability, T/C: 98.4%
[23]
  viability, T/C: 68.2%
[24]
  viability, T/C: 59.1%
[25]
  viability, T/C: 50.7%
[26]
  viability, T/C: 50.8%
[27]
  viability, T/C: 53%
[28]
  viability, T/C: 94.9%
[29]
  viability, T/C: 106%
[30]
  viability, T/C: 0.33%
[31]
  viability, T/C: 0.98%
[32]
  viability, T/C: 58.9%
[33]
  viability, T/C: 2.28%
Second compound 10 µM, first compound 0.000316 µM
  viability, T/C: 0.34%
Second compound 10 µM, first compound 0.001 µM
  viability, T/C: 0.24%
Second compound 10 µM, first compound 0.00316 µM
  viability, T/C: 0.21%
Second compound 10 µM, first compound 0.01 µM
  viability, T/C: 0.52%
[51]
  viability, T/C: 0.26%
[52]
  viability, T/C: 0.44%
